Patent US20240025906A1 (NEURON23, INC., priority 2022, published 2024)
Counter-ions that a name gives are not always drawn.

Experiments:
TYK2 JH2 = molecular target: T1, TYK2 JH2 (Homo sapiens, UniProt P29597); experiment: TYK2 JH2 binding assay (KINOMEscan KdELECT competitive binding); conditions: TYK2 JH2 domain, KINOMEscan KdELECT (Assay A); read-out: Biochemical TYK2_DiscoverX_JH2_BND_Kd
T1 construct: purchased DiscoverX (KINOMEscan KdELECT service); host or cells: E. coli BL21-derived (T7 phage display) or HEK-293
How it was run: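 JH2-domain fragment, expressed as T7 phage tag in BL21-derived E. coli or DNA-tagged from HEK-293, competed with test compound against bead-immobilized biotinylated ligand in binding buffer (0.9% DMSO). 1 h shaking at room temperature; bound kinase eluted with 0.5 μM free ligand and quantified by qPCR. Kd from 11-point 3-fold dilutions.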

[1] = tested on: JAK1/TYK2 pSTAT5 (Tyr694/699) in THP-1 cell line; experiment: IFNa-stimulated JAK1/TYK2 pSTAT5 (Tyr694/699) inhibition cellular assay, AlphaLISA; type: cell-based; conditions: Homo sapiens; THP-1 cells, IFNa-stimulated, AlphaLISA (Assay B); read-out: Cellular_THP1_IFNa-pSTATS_TYK2
How it was run: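 pSTAT5 (Tyr694/699) in lysates quantified by AlphaLISA (615 nm) after 30 min IFNa stimulation (100 ng/mL stock) of THP-1 cells. The cells, 2e4 per well in HBSS, had first been exposed 1 h at 37° C. to eight 6-fold compound dilutions, 10000 down to 0.04 nM final. IC50 fitted by 4PL regression, bottom 0, Hill slope −1.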

T1 sequence (P29597 589-875 limits assumed): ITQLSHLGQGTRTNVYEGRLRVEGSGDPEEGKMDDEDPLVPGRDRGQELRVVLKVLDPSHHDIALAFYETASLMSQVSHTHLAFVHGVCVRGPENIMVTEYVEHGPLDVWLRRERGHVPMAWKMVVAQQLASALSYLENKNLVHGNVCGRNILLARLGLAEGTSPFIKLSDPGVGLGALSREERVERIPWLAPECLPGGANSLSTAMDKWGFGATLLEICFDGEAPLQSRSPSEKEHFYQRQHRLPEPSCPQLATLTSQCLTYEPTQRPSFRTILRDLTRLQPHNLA

SMILES | Kd (TYK2 JH2) | IC50 [1]
CNc1ncc(C2=CCC(c3nc[nH]n3)C2)c2cc(NC(=O)C3CC3)ncc12 (stereo not drawn) [Example 833, N-(5-(4-(1H-1,2,4-triazol-3-yl)cyclopent-1-en-1-yl)-8-(methylamino)-2,7-naphthyridin-3-yl)cyclopropanecarboxamide] | ≤ 100 nM | > 500 nM
CNc1ncc(C2=CCC(c3ncn(C)n3)C2)c2cc(NC(=O)C3CC3)ncc12 (stereo not drawn) [Example 834, N-(5-(4-(1-methyl-1H-1,2,4-triazol-3-yl)cyclopent-1-en-1-yl)-8-(methylamino)-2,7-naphthyridin-3-yl)cyclopropanecarboxamide] | ≤ 100 nM | > 500 nM
CNc1ncc(C2=CCC(c3ncnn3C)C2)c2cc(NC(=O)C3CC3)ncc12 (stereo not drawn) [Example 835, N-(5-(4-(1-methyl-1H-1,2,4-triazol-5-yl)cyclopent-1-en-1-yl)-8-(methylamino)-2,7-naphthyridin-3-yl)cyclopropanecarboxamide] | ≤ 100 nM | > 500 nM
CNc1ncc(-c2ccn(CCc3ncn(C)n3)n2)c2cc(NC(=O)C3CC3)ncc12 [Example 835A, N-(5-(1-(2-(1-methyl-1H-1,2,4-triazol-3-yl)ethyl)-1H-pyrazol-3-yl)-8-(methylamino)-2,7-naphthyridin-3-yl)cyclopropanecarboxamide] | ≤ 100 nM | > 500 nM
CNc1ncc(-c2ccn(CCc3ncnn3C)n2)c2cc(NC(=O)C3CC3)ncc12 [Example 836, N-(5-(1-(2-(1-methyl-1H-1,2,4-triazol-5-yl)ethyl)-1H-pyrazol-3-yl)-8-(methylamino)-2,7-naphthyridin-3-yl)cyclopropanecarboxamide] | ≤ 100 nM | > 500 nM
CNc1ncc(CCc2ccc(S(C)(=O)=O)cc2)c2cc(NC(=O)C3CC3)ncc12 [Example 839, N-(8-(methylamino)-5-(4-(methylsulfonyl)phenethyl)-2,7-naphthyridin-3-yl)cyclopropanecarboxamide] | ≤ 100 nM | ≤ 500 nM
CNc1ncc(-c2cn3cccnc3n2)c2cc(NC(=O)C3CC3)ncc12 [Example 841, N-(5-(imidazo[1,2-a]pyrimidin-2-yl)-8-(methylamino)-2,7-naphthyridin-3-yl)cyclopropanecarboxamide] | ≤ 100 nM | > 500 nM
CNc1ncc(-c2nc3n(n2)CCCC3)c2cc(NC(=O)C3CC3)ncc12 [Example 842, N-(8-(methylamino)-5-(5,6,7,8-tetrahydro-[1,2,4]triazolo[1,5-a]pyridin-2-yl)-2,7-naphthyridin-3-yl)cyclopropanecarboxamide] | ≤ 100 nM | > 500 nM
CNc1ncc(-c2nc3c(o2)CCCC3)c2cc(NC(=O)C3CC3)ncc12 [Example 843, N-(8-(methylamino)-5-(4,5,6,7-tetrahydrobenzo[d]oxazol-2-yl)-2,7-naphthyridin-3-yl)cyclopropanecarboxamide] | ≤ 100 nM | ≤ 500 nM
CNc1ncc(C23CC(C2)C3)c2cc(NC(=O)C3CC3)ncc12 [Example 844, N-(5-(bicyclo[1.1.1]pentan-1-yl)-8-(methylamino)-2,7-naphthyridin-3-yl)cyclopropanecarboxamide] | ≤ 100 nM | > 500 nM
CNc1ncc(C23CC(c4ccncc4)(C2)C3)c2cc(NC(=O)C3CC3)ncc12 [Example 845, N-(8-(methylamino)-5-(3-(pyridin-4-yl)bicyclo[1.1.1]pentan-1-yl)-2,7-naphthyridin-3-yl)cyclopropanecarboxamide] | ≤ 100 nM | > 500 nM
CCNc1ncc(-c2ccccc2)c2cc(NC(=O)C3CC3)ncc12 [Example 846, N-(8-(ethylamino)-5-phenyl-2,7-naphthyridin-3-yl)cyclopropanecarboxamide] | ≤ 100 nM | > 500 nM
CNc1ncc(-c2ccc(-c3c(C)cnn3C)cc2)c2cc(NC(=O)C3CC3)ncc12 [Example 847, N-(5-(4-(1,4-dimethyl-1H-pyrazol-5-yl)phenyl)-8-(methylamino)-2,7-naphthyridin-3-yl)cyclopropanecarboxamide] | ≤ 100 nM | ≤ 500 nM
CNc1ncc(CCc2ccc(OC(F)(F)F)cc2)c2cc(NC(=O)C3CC3)ncc12 [Example 848, N-(8-(methylamino)-5-(4-(trifluoromethoxy)phenethyl)-2,7-naphthyridin-3-yl)cyclopropanecarboxamide] | ≤ 100 nM | > 500 nM
CNc1ncc(C2=CCc3ccccc3O2)c2cc(NC(=O)C3CC3)ncc12 [Example 849, N-(5-(4H-chromen-2-yl)-8-(methylamino)-2,7-naphthyridin-3-yl)cyclopropanecarboxamide] | ≤ 100 nM | > 500 nM
CNc1ncc(C2=Cc3ccccc3CO2)c2cc(NC(=O)C3CC3)ncc12 [Example 850, N-(5-(1H-isochromen-3-yl)-8-(methylamino)-2,7-naphthyridin-3-yl)cyclopropanecarboxamide] | ≤ 100 nM | ≤ 500 nM
CNc1ncc(-c2ccc(-c3cnn(C)n3)cc2)c2cc(NC(=O)C3CC3)ncc12 [Example 851, N-(5-(4-(2-methyl-2H-1,2,3-triazol-4-yl)phenyl)-8-(methylamino)-2,7-naphthyridin-3-yl)cyclopropanecarboxamide] | ≤ 100 nM | ≤ 500 nM
CNc1ncc(-c2ccn(CCOC)n2)c2cc(NC(=O)C3CC3)ncc12 [Example 852, N-(5-(1-(2-methoxyethyl)-1H-pyrazol-3-yl)-8-(methylamino)-2,7-naphthyridin-3-yl)cyclopropanecarboxamide] | ≤ 100 nM | > 500 nM
CNc1ncc(-c2nc3n(n2)CCC3)c2cc(NC(=O)C3CC3)ncc12 [Example 853, N-(5-(6,7-dihydro-5H-pyrrolo[1,2-b][1,2,4]triazol-2-yl)-8-(methylamino)-2,7-naphthyridin-3-yl)cyclopropanecarboxamide formate] | ≤ 100 nM | > 500 nM
CNc1ncc(-c2nc3c(o2)CCC(C(F)(F)F)C3)c2cc(NC(=O)C3CC3)ncc12 (stereo not drawn) [Example 855, N-(8-(methylamino)-5-(5-(trifluoromethyl)-4,5,6,7-tetrahydrobenzo[d]oxazol-2-yl)-2,7-naphthyridin-3-yl)cyclopropanecarboxamide] | ≤ 100 nM | > 500 nM
CNc1ncc(-c2ccc(Oc3cncs3)cc2)c2cc(NC(=O)C3CC3)ncc12 [Example 857, N-(8-(methylamino)-5-(4-(thiazol-5-yloxy)phenyl)-2,7-naphthyridin-3-yl)cyclopropanecarboxamide] | ≤ 100 nM | ≤ 500 nM
CNc1ncc(-c2ccc(Oc3ccncc3)cc2)c2cc(NC(=O)C3CC3)ncc12 [Example 858, N-(8-(methylamino)-5-(4-(pyridin-4-yloxy)phenyl)-2,7-naphthyridin-3-yl)cyclopropanecarboxamide] | ≤ 100 nM | ≤ 500 nM
CNc1ncc(-c2ccc(OCCOC)cc2)c2cc(NC(=O)C3CC3)ncc12 [Example 859, N-(5-(4-(2-methoxyethoxy)phenyl)-8-(methylamino)-2,7-naphthyridin-3-yl)cyclopropanecarboxamide] | ≤ 100 nM | ≤ 500 nM
CNc1ncc(-c2ccc(N3CCC3CC#N)cc2)c2cc(NC(=O)C3CC3)ncc12 (stereo not drawn) [Example 860, N-(5-(4-(2-(cyanomethyl)azetidin-1-yl)phenyl)-8-(methylamino)-2,7-naphthyridin-3-yl)cyclopropanecarboxamide] | ≤ 100 nM | > 500 nM
CNc1ncc(-c2ccc(O)cc2)c2cc(NC(=O)C3CC3)ncc12 [Example 861, N-(5-(4-hydroxyphenyl)-8-(methylamino)-2,7-naphthyridin-3-yl)cyclopropanecarboxamide] | ≤ 100 nM | ≤ 500 nM
CNc1ncc(-c2ccc(Oc3ccnc(C)c3)cc2)c2cc(NC(=O)C3CC3)ncc12 [Example 862, N-(8-(methylamino)-5-(4-((2-methylpyridin-4-yl)oxy)phenyl)-2,7-naphthyridin-3-yl)cyclopropanecarboxamide] | ≤ 100 nM | ≤ 500 nM
CNc1ncc(-c2ccc(Oc3ccccn3)cc2)c2cc(NC(=O)C3CC3)ncc12 [Example 863, N-(8-(methylamino)-5-(4-(pyridin-2-yloxy)phenyl)-2,7-naphthyridin-3-yl)cyclopropanecarboxamide] | ≤ 100 nM | ≤ 500 nM
CNc1ncc(-c2ccc(Oc3cccnc3)cc2)c2cc(NC(=O)C3CC3)ncc12 [Example 864, N-(8-(methylamino)-5-(4-(pyridin-3-yloxy)phenyl)-2,7-naphthyridin-3-yl)cyclopropanecarboxamide] | ≤ 100 nM | ≤ 500 nM
CNc1ncc(-c2ccc(Oc3ncn(C)n3)cc2)c2cc(NC(=O)C3CC3)ncc12 [Example 865, N-(5-(4-((1-methyl-1H-1,2,4-triazol-3-yl)oxy)phenyl)-8-(methylamino)-2,7-naphthyridin-3-yl)cyclopropanecarboxamide] | ≤ 100 nM | ≤ 500 nM
CNc1ncc(CCc2ccc3nnn(C)c3c2)c2cc(NC(=O)C3CC3)ncc12 [Example 866, N-(5-(2-(1-methyl-1H-benzo[d][1,2,3]triazol-6-yl)ethyl)-8-(methylamino)-2,7-naphthyridin-3-yl)cyclopropanecarboxamide] | ≤ 100 nM | ≤ 500 nM
